Experimental data reported in patent US5250518A, “O-methyl derivatives of azithromycin A” (priority 1990, dated 1993).
In brackets after ≈: the same amount, converted by molar mass. Read-outs that look alike come from different tables or passages of the source. One block for each compound: values may come before it.

Key:
[1] = tested on: Staphilococcus aureus ATCC 6538-P; assay: Antibacterial in vitro activity, tube dilution method (Table 1); type: cell-based; conditions: 24 h
Description: (§1) O-methyl derivatives of azithromycin A of the formulae (Ii)-(Il) and their pharmaceutically acceptable addition salts have a potent antimicrobial activity. The preliminary antibacterial in vitro activity of 6-O-methyl-azithromycin A (Ii) was determined on a series of gram-positiveand gram-negative test bacteria and clinical isolates in comparison with erythromycin A. The assessment was performed by the "tube dilution" method. In the investigation there were used 24-hours cultures in "brain hearth bouillon" of standard strains and freshly isolated strains from a clinical sample.
(§2) Substrate: Brain hearth bouillon
(§3) Incubation: 24 hours, 37° C.
(§4) MIC: Minimal Inhibitory Concentration (μg/mL)
(§5) MBC: Minimal Bactericidal Concentration (μg/mL)

[2] = tested on: Klebsiella pneumoniae NCTC-10499; assay: as above; type: cell-based; conditions: NCTC10499, 24 h
Description: as §1, §2, §3, §4, §5

[3] = tested on: Streptococcus faecalis ATCC-8043; assay: as above; type: cell-based; conditions: Enterococcus faecalis, ATCC8043, 24 h
Description: as §1, §2, §3, §4, §5

[4] = tested on: Pseudomonas aeruginosa NCTC-10490; assay: as above; type: cell-based; conditions: NCTC10490, 24 h
Description: as §1, §2, §3, §4, §5

[5] = tested on: Sarcina lutea ATCC-9341; assay: as above; type: cell-based; conditions: Micrococcus luteus, ATCC9341, Brain hearth bouillon, 24 hours, 37° C.
Description: as §1, with “The” for “O-methyl derivatives of azithromycin A of the formulae (Ii)-(Il) and their pharmaceutically acceptable addition salts have a potent antimicrobial activity. The”

[6] = tested on: Escherichia coli ATCC 10536; assay: as above; type: cell-based; conditions: ATCC10536, Brain hearth bouillon, 24 hours, 37° C.
Description: as §1, with “The” for “O-methyl derivatives of azithromycin A of the formulae (Ii)-(Il) and their pharmaceutically acceptable addition salts have a potent antimicrobial activity. The”

[7] = cited from earlier work
[8] = tested on: Haemophylus influenzae 4028; assay: Antibacterial in vitro activity against clinical isolates, tube dilution method (Table 2); type: cell-based; conditions: clinical isolate, Brain hearth bouillon, 24 hours, 37° C.
Description: as §1, §2, §3, §4
(§6) MBC: Minimal Bactericidal Concentation (μg/mL)

[9] = tested on: Streptococcus pneumoniae 4050; assay: as above; type: cell-based; conditions: clinical isolate, Brain hearth bouillon, 24 hours, 37° C.
Description: as §1, §2, §3, §4, §6

[10] = tested on: Staphylococcus saprophyticus 3947; assay: as above; type: cell-based; conditions: clinical isolate, Brain hearth bouillon, 24 hours, 37° C.
Description: as §1, §2, §3, §4, §6

[11] = tested on: Staphylococcus aureus 10097; assay: as above; type: cell-based; conditions: clinical isolate, Brain hearth bouillon, 24 hours, 37° C.
Description: as §1, §2, §3, §4, §6

[12] = tested on: Streptococcus faecalis 10390; assay: as above; type: cell-based; conditions: Enterococcus faecalis, clinical isolate, Brain hearth bouillon, 24 hours, 37° C.
Description: as §1, §2, §3, §4, §6

[13] = tested on: Staphylococcus aureus 10099; assay: as above; type: cell-based; conditions: clinical isolate, Brain hearth bouillon, 24 hours, 37° C.
Description: as §1, §2, §3, §4, §6

[14] = tested on: ATCC 10240; assay: Antibacterial in vitro activity in comparison with azithromycin (Table 3); type: cell-based; conditions: Brain hearth Bouillon, 24-48 hours, 37° C., inoculum 10^-5 -10^-6 cfu/mL
Source text: (§7) In Table 3 there are represented in vitro tests of 6-O-methyl- (Ii), 6,11-di-O-methyl- (Ij), 11-O-methyl- (Ik) and 6,11,4"-tri-O-methyl-azithromycin A (II) in comparison with azithromycin.

[15] = tested on: Bacillus cereus NCTC 10320; assay: as above; type: cell-based; conditions: NCTC10320, Brain hearth Bouillon, 24-48 hours, 37° C., inoculum 10^-5 -10^-6 cfu/mL
Source text: as §7

[16] = tested on: Corynebacterium xerosis NCTC 9755; assay: as above; type: cell-based; conditions: NCTC9755, Brain hearth Bouillon, 24-48 hours, 37° C., inoculum 10^-5 -10^-6 cfu/mL
Source text: as §7

[17] = tested on: Bacillus subtilis NCTC 8241; assay: as above; type: cell-based; conditions: Bacillus subtilis, NCTC8241; Brain hearth Bouillon, 24-48 hours, 37° C., inoculum 10^-5 -10^-6 cfu/mL
Source text: as §7

[18] = tested on: ATCC 8043; assay: as above; type: cell-based; conditions: Staphylococcus faecalis, ATCC8043; Brain hearth Bouillon, 24-48 hours, 37° C., inoculum 10^-5 -10^-6 cfu/mL
Source text: as §7

[19] = tested on: Staphylococcus epidermidis ATCC 12228; assay: as above; type: cell-based; conditions: ATCC12228, Brain hearth Bouillon, 24-48 hours, 37° C., inoculum 10^-5 -10^-6 cfu/mL
Source text: as §7

[20] = tested on: Pseudomonas aeruginosa NCTC 10490; assay: as above; type: cell-based; conditions: NCTC10490, Brain hearth Bouillon, 24-48 hours, 37° C., inoculum 10^-5 -10^-6 cfu/mL
Source text: as §7

[21] = tested on: Sarcina lutea ATCC 9341; assay: as above; type: cell-based; conditions: Micrococcus luteus, ATCC9341; Brain hearth Bouillon, 24-48 hours, 37° C., inoculum 10^-5 -10^-6 cfu/mL
Source text: as §7

[22] = tested on: Bacillus pumilus NCTC 8241; assay: as above; type: cell-based; conditions: NCTC8241, Brain hearth Bouillon, 24-48 hours, 37° C., inoculum 10^-5 -10^-6 cfu/mL
Source text: as §7

[23] = tested on: Escherichia coli ATCC 10536; assay: as above; type: cell-based; conditions: ATCC10536, Brain hearth Bouillon, 24-48 hours, 37° C., inoculum 10^-5 -10^-6 cfu/mL
Source text: as §7

[24] = tested on: ATCC 6538P; assay: as above; type: cell-based, Staphilococcus aureus
Source text: as §7

[25] = tested on: gram-negative microorganisms; conditions: in comparison with the parent antibiotic (erythromycin A); cited from earlier work
[26] = in comparison with the parent antibiotic (erythromycin A); cited from earlier work
[27] = tested on: gram-positive microorganisms; conditions: in comparison to erythromycin A; cited from earlier work
[28] = read-out: MBC (Minimal Bactericidal Concentration)
[29] = read-out: MIC (Minimal Inhibitory Concentration)
[30] = read-out: MBC (Minimal Bactericidal Concentation)
[31] = Brain hearth Bouillon, 24-48 hours, 37° C., inoculum 10^-5 -10^-6 cfu/mL, read-out: MIC

Structure (SMILES): CC[C@H]1OC(=O)[C@H](C)[C@@H](O[C@H]2C[C@@](C)(OC)[C@@H](O)[C@H](C)O2)[C@H](C)[C@@H](O[C@@H]2O[C@H](C)C[C@H](N(C)C)[C@H]2O)[C@](C)(O)C[C@@H](C)C(=O)[C@H](C)[C@@H](O)[C@]1(C)O [Erythromycin A, reference compound]
MBC [1, 28]: 0.8 µg/mL (≈ 1.09 µM)
MIC [1, 29]: 0.2 µg/mL (≈ 0.273 µM)
MBC [2, 28]: > 50 µg/mL
MIC [2, 29]: > 50 µg/mL
MBC [3, 28]: 0.8 µg/mL (≈ 1.09 µM)
MIC [3, 29]: 0.2 µg/mL (≈ 0.273 µM)
MBC [4, 28]: > 50 µg/mL
MIC [4, 29]: > 50 µg/mL
MBC [5, 28]: 0.4 µg/mL (≈ 0.545 µM)
MIC [5, 29]: 0.2 µg/mL (≈ 0.273 µM)
MBC [6, 28]: > 50 µg/mL
MIC [6, 29]: 50 µg/mL (≈ 68.1 µM)
behaviour in acidic medium ([7]; acidic medium): easily converted into anhydroerythromycin
MBC [8, 30]: 0.2 µg/mL (≈ 0.273 µM)
MIC [8, 29]: 0.05 µg/mL (≈ 0.0681 µM)
MBC [9, 30]: 0.4 µg/mL (≈ 0.545 µM)
MIC [9, 29]: 0.1 µg/mL (≈ 0.136 µM)
MBC [10, 30]: 0.8 µg/mL (≈ 1.09 µM)
MIC [10, 29]: 0.4 µg/mL (≈ 0.545 µM)
MBC [11, 30]: 0.4 µg/mL (≈ 0.545 µM)
MIC [11, 29]: 0.1 µg/mL (≈ 0.136 µM)
MBC [12, 30]: 3.1 µg/mL (≈ 4.22 µM)
MIC [12, 29]: 0.8 µg/mL (≈ 1.09 µM)
MBC [13, 30]: 0.2 µg/mL (≈ 0.273 µM)
MIC [13, 29]: 0.1 µg/mL (≈ 0.136 µM)

MIC [14]: 0.78 µg/mL (≈ 1 µM)
MIC [15]: 1.56 µg/mL (≈ 2.01 µM)
MIC [16]: 12.5 µg/mL (≈ 16.1 µM)
MIC [17]: 0.78 µg/mL (≈ 1 µM)
MIC [18]: 0.78 µg/mL (≈ 1 µM)
MIC [19]: 1.56 µg/mL (≈ 2.01 µM)
MIC [20]: 100 µg/mL (≈ 129 µM)
MIC [21]: 0.05 µg/mL (≈ 0.0643 µM)
MIC [22]: 0.78 µg/mL (≈ 1 µM)
MIC [23]: 6.25 µg/mL (≈ 8.04 µM)
MIC [24, 31]: 1.56 µg/mL (≈ 2.01 µM)
Structure (SMILES): CC[C@H]1OC(=O)[C@H](C)[C@@H](O[C@H]2C[C@@](C)(OC)[C@@H](O)[C@H](C)O2)[C@H](C)[C@@H](O[C@@H]2O[C@H](C)C[C@H](N(C)C)[C@H]2O)[C@](C)(OC)C[C@@H](C)CN(C)[C@H](C)[C@@H](OC)[C@]1(C)O [Ij, 6,11-Di-O-Methyl-azithromycin A]

MIC [14]: 3.12 µg/mL (≈ 3.95 µM)
MIC [15]: 3.12 µg/mL (≈ 3.95 µM)
MIC [16]: 25 µg/mL (≈ 31.6 µM)
MIC [17]: 3.12 µg/mL (≈ 3.95 µM)
MIC [18]: 0.78 µg/mL (≈ 0.986 µM)
MIC [19]: 3.12 µg/mL (≈ 3.95 µM)
MIC [20]: 200 µg/mL (≈ 253 µM)
MIC [21]: 0.05 µg/mL (≈ 0.0632 µM)
MIC [22]: 3.12 µg/mL (≈ 3.95 µM)
MIC [23]: 6.25 µg/mL (≈ 7.9 µM)
MIC [24, 31]: 3.12 µg/mL (≈ 3.95 µM)
Structure (SMILES): CC[C@H]1OC(=O)[C@H](C)[C@@H](O[C@H]2C[C@@](C)(OC)[C@@H](OC)[C@H](C)O2)[C@H](C)[C@@H](O[C@@H]2O[C@H](C)C[C@H](N(C)C)[C@H]2O)[C@](C)(OC)C[C@@H](C)CN(C)[C@H](C)[C@@H](OC)[C@]1(C)O [Il, 6,11,4"Tri-O-Methyl-azithromycin A]

Structure (SMILES): CC[C@H]1OC(=O)[C@H](C)[C@@H](O[C@H]2C[C@@](C)(OC)[C@@H](O)[C@H](C)O2)[C@H](C)[C@@H](O[C@@H]2O[C@H](C)C[C@H](N(C)C)[C@H]2O)[C@](C)(O)C[C@@H](C)CN(C)[C@H](C)[C@@H](O)[C@]1(C)O [azithromycin, N-methyl-11-aza-10-deoxo-10-dihydroerythromycin A (9-deoxo-9a-aza-9a-methyl-9a-homoerythromycin A)]
stability in acidic medium in comparison with the parent antibiotic ([7]; versus erythromycin A): improved stability in acidic medium
in vitro activity against gram-negative microorganisms [25]: improved in vitro activity against gram-negative microorganisms
MIC [14]: 0.39 µg/mL (≈ 0.521 µM)
MIC [15]: 0.39 µg/mL (≈ 0.521 µM)
MIC [16]: 6.25 µg/mL (≈ 8.34 µM)
MIC [17]: 0.39 µg/mL (≈ 0.521 µM)
MIC [18]: 0.05 µg/mL (≈ 0.0668 µM)
MIC [19]: 0.1 µg/mL (≈ 0.134 µM)
MIC [20]: 100 µg/mL (≈ 134 µM)
MIC [21]: 0.05 µg/mL (≈ 0.0668 µM)
MIC [22]: 0.2 µg/mL (≈ 0.267 µM)
MIC [23]: 0.78 µg/mL (≈ 1.04 µM)
concentration in the tissues [26]: significantly higher conncentration in the tissues
MIC [24]: 1.56 µg/mL (≈ 2.08 µM)

Structure (SMILES): CC[C@H]1OC(=O)[C@H](C)[C@@H](O[C@H]2C[C@@](C)(OC)[C@@H](O)[C@H](C)O2)[C@H](C)[C@@H](O[C@@H]2O[C@H](C)C[C@H](N(C)C)[C@H]2O)[C@](C)(OC)C[C@@H](C)C(=O)[C@H](C)[C@@H](O)[C@]1(C)O [clarithromycin, 6-O-methyl-erythromycin A]
in vitro activity against gram-positive microorganisms [27]: improved in vitro activity against gram-positive microorganisms
